Columns and labels:
stomatin = target: T1, stomatin (Mus musculus, UniProt P54116); experiment: BiFC assay of stomatin self-association; assay type: cell-based
T1 construct: expressed in transfected cells; host or cells: HEK293 (general statement on the BiFC assay)
Procedure: FIG. 8: Effects of STOML3 modulating molecules on other Stomatin-domain proteins. (a) BiFC signal development observed when cells were transfected with Stomatin-VC/-VN, STOML1-VC/-VN, STOML2-VC/-VN, STOML3-VC/-VN or Podocin-VC/-VN expression constructs respectively. […] (b) OB-1 was tested at two different concentrations (2 μm and 20 μm) using the BiFC assay where wild type STOML3 was used as both bait and prey.
(§1) In mammals STOML3 belongs to a family of five structurally conserved membrane proteins, including stomatin, STOML1, STOML2, and podocin^10,12-16, all of which self-associate via their stomatin-domain (FIG. 8a)^10. Self-association of stomatin-domain proteins can be monitored in HEK293 cells using Bimolecular Fluorescence Complementation (BiFC) whereby N- and C-terminal halves of the YFP molecule are tagged to the prey and bait protein STOML3^2,17 (FIG. 1a). Irreversible association of the YFP fragments produces fluorescence that increases linearly over time (FIG. 1b).

head-restrained mice = experiment: Tactile perception task for head-restrained mice; assay type: in vivo, mouse
Description: Male C57B16/J mice were anaesthetized and a lightweight metal headholder was implanted to the skull using glue (Loctite 401, Henkel) and dental cement (Paladur®, Heraeus). Mice were habituated to the head-restraint and the behavioral setup over 1-2 days. Mouse licking and forepaw behavior was monitored with three custom-made capacitance sensors: a licking sensor, a rest sensor and a target sensor that provided an online monitor of paw or tongue contact. The rest sensor was a ball (diameter: 6 mm) mounted on a glass rod of 30 mm length, glued to a piezoelectric bender (PICMA® Multilayer Piezo Bender Actuator, Physik Instrumente). The piezo generated a 30 ms cosine tactile pulse via a piezo amplifier system (Sigmann Elektronik). A urethane foam buffer (Poron®, Rogers Cooperation) was placed between the piezo and the supporting platform to reduce ringing oscillations after the stimulus pulse. The stimulus amplitude was calibrated with a high-speed (300 Hz) camera (Dalsa Genie HM640). […] Mice were water restricted and given approximately 4×0.6 μl water rewards on condition of touching the target sensor within a defined latency from stimulus onset and licking the water dispenser. The target sensor moved to the start position at the start of a new trial and away from the mouse at the end of the trial. Inter-trial interval was randomized between 7 and 13 s. […]

naive mice = experiment: Paw withdrawal threshold and radiant heat latency in naive mice; assay type: in vivo, mouse; conditions: intraplantar 250-500 pmol per paw
Description: (§2) Mice were allowed to habituate to the testing apparatus (acrylic chambers 10×10 cm in size, suspended above a wired mesh grid) one hour prior to behavioral testing. Only once the subject was at rest and not moving, calibrated von-Frey hair monofilaments (Aesthesio® set of 20 monofilaments, Ugo Basil) were applied to the plantar surface of the hind paw in order to deliver target forces from 0.008 grams to 4 grams increasing in an approximately logarithmic scale. A single stimulus indicated by a slight bending of the filament lasted for two seconds unless the mouse withdrew its paw. In order to measure mechanosensitivity the up-and-down method described by Chaplan^13 was adapted as follows: Testing began with a filament delivering a target force of 0.4 g, but filaments were applied three times. A positive response was noted if the subject withdrew the paw to all three filament applications, so that the successively smaller filament was presented next. […] Paw withdrawal thresholds were calculated as median of 23 to 30 determined turning points of the particular force stimuli applied to the subject.
Drug injections of OB-1 or DMSO alone were dissolved in Ringer's solution (in mM: 135 NaCl, 5 KCl, 5 HEPES, 1.8 CaCl2), 1 MgCl2) to make the OB-1 and vehicle solution. […]

[1] = system: cutaneous sensory afferents of the saphenous nerve; experiment: Ex vivo skin-nerve preparation after local injection into the paw; assay type: in vivo, mouse; conditions: recordings 24 h after treatment
[2] = system: Spared tibial nerve injury (SNI) mice; experiment: Spared nerve injury (SNI) model, paw withdrawal thresholds; assay type: in vivo, mouse; conditions: administration to the plantar skin
Description: as §2

[3] = system: RA-currents in mechanoreceptor sensory neurons; experiment: Cell soma indentation, RA-mechanosensitive currents in sensory neurons; assay type: cell-based, mouse
Procedure: Whole-cell, patch-clamp recordings were conducted as previously described 5-7, using patch pipettes with a tip resistance of 3-6 MΩ, filled with a solution of: 110 mM KCl, 10 mM NaCl, 1 mM MgCl2, 1 mM EGTA and 10 mM HEPES, adjusted to pH 7.3 with KOH. (For experiments on DRG neurons 10 mM QX-314 was added to the pipette to block voltage-gated sodium channels 8 Extracellular solutions contained 140 mM NaCl, 4 mM KCl, 2 mM CaCl2, 1 mM MgCl2, 4 mM glucose, 10 mM HEPES, adjusted to pH 7.4 with NaOH. A Zeiss 200 inverted microscope and an EPC-10 amplifier in combination with Patchmaster software was used, data was analyzed using Fitmaster software (HEKA Electronik GmbH, Germany). Pipette and membrane capacitance were compensated using the auto function of Patchmaster, series resistance was compensated by at least 60% to minimize voltage errors. Mechanical stimuli were applied using a polished glass probe driven by the MM3A micromanipulator (Kleindiek Nanotechnik, Germany). Mechanical stimuli were applied by either; indenting the cell soma or by culturing cells on elastomeric pillar arrays and applying the stimulus to the cell-substrate interface by deflecting an individual pilus.
We evaluated the effects of OB-1 and OB-2 on mechanosensitive currents in acutely cultured mouse sensory neurons. […]

[4] = system: mice with chronic constriction injury; experiment: Chronic constriction injury (CCI) model, paw withdrawal thresholds to von Frey filaments; assay type: in vivo, mouse
Description: In deeply anaesthetized mice using isoflurane delivered in 100% 02 (Univentor 410 Anaesthesia unit; Univentor, Malta), four loose silk (5/0; Catgut GmbH Markneukirchen) ligatures were placed around the sciatic nerve at the level of the right mid-thigh as described previously (Wetzel et al., 2007).
as §2
Drug injections of OB-1 or DMSO alone were dissolved in Ringer's solution (in mM: 135 NaCl, 5 KCl, 5 HEPES, 1.8 CaCl2), 1 MgCl2) to make the OB-1 and vehicle solution. Injections were made 3 hours prior to behavioral testing, approximately 20 μl solution, 250 pmol per paw, was injected into the palm with a Hamilton syringe, gauge 33. During the injection procedure, the mouse was anaesthetized with isoflurane (1.5 to 2.5% in 02). The injection procedure lasted around 3 minutes after which the mouse was moved to the home cage for recovery before behavioral testing.
We next interrogated whether local application of OB-1 can ameliorate tactile-evoked pain behavior in neuropathic models. […] We decided to test this idea more directly by testing the effects of local OB-1 on the mechanical sensitivity of Stoml3^−/− mice with CCI. […] Off-target effects are an issue for any biologically active small molecule. We therefore tested the effects of 20 μM OB-1 in a commercially available in vitro pharmacology panel (www.cerep.fr) consisting of 79 receptors and ion channels.

ASIC3 = experiment: pH-gated ASIC3 currents and stomatin modulation in CHO cells; assay type: cell-based
Procedure: To test the effect of compounds on stomatin modulation of ASIC currents CHO cells were transfected with vectors encoding Stomatin and ASIC3, in a ratio of 4:1 using lipofectamine, as per manufacturer's instructions. Cells were incubated with 20 μM OB-1 for 3 hours in extracellular buffer (see above), and OB-1 was maintained in the media during electrophysiological experiments. ASIC3 channels were gated by applying solutions of pH6 and pH4, and both the transient and sustained peak current density was measured.

human STOML3 = target: T2, human STOML3 (Homo sapiens, UniProt Q8TAV4); experiment: BiFC assay of human STOML3 self-association; assay type: cell-based
T2 construct: expressed in transfected cells; host or cells: HEK293 (general statement on the BiFC assay)
Description: as §1

NGF-injected mice = experiment: NGF-induced hyperalgesia; assay type: in vivo, mouse
Description: as §2

T2 sequence (Q8TAV4 whole entry): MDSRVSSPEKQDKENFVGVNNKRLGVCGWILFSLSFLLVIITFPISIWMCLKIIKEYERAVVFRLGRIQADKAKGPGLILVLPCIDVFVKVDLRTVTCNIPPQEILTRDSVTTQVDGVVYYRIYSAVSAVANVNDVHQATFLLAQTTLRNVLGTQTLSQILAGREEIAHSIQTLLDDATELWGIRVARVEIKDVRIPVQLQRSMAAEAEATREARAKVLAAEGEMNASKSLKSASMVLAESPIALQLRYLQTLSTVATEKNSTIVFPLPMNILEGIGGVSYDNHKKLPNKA
T1 sequence (P54116 whole entry): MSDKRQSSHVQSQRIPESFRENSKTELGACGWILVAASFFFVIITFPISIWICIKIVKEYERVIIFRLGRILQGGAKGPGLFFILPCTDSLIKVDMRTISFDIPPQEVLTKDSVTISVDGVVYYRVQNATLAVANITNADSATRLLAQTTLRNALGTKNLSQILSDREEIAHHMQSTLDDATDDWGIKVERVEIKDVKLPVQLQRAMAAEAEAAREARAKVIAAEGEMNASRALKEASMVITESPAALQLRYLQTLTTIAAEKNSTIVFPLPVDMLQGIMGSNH

Question: With CCOC(=O)c1c(-c2ccccc2)oc2ccc(Oc3c([N+](=O)[O-])ncn3C)cc12 [OB-1, Ethyl 5-((1-methyl-4-nitro-1H-imidazol-5-yl)oxy)-2-phenylbenzofuran-3-carboxylate] as the molecule, how does the “self-association of stomatin (BiFC)” value (stomatin) read?
Answer: effective inhibitor

Question: And the “psychometric curve of tactile stimulus detection” value (head-restrained mice; 11 nmol per paw into forepaw, stimulus strengths 125-275 μm)?
Answer: shifted to the right

Question: And the “time for detection rates of threshold stimuli to return to pre-treatment levels” value (head-restrained mice; after drug treatment)?
Answer: 1 to 4 days

Question: And the “paw withdrawal thresholds to mechanical stimuli” value (naive mice)?
Answer: no change

Question: What about the “withdrawal latency for radiant heat stimuli” value (naive mice) of the same molecule?
Answer: no change

Question: And the “mechanoreceptor silencing effect, reversibility” value [1]?
Answer: completely reversible

Question: And the allodynia [2]?
Answer: no reversal

Question: And the “inactivation time constant (τ2) of mechanically-gated currents” value [3]?
Answer: slowed

Question: What about the “neurons displaying no mechanosensitive current” value ([3]; 12/21 neurons, control 21%) of the same molecule?
Answer: ~60%

Question: And the “effect of a single dose after 24 h” value ([4]; CCI)?
Answer: absent

Question: What about the “time of maximal effect after a single local injection” value ([4]; CCI) of the same molecule?
Answer: 3 h

Question: What about the established hypersensitivity ([4]; CCI, applied to the contralateral paw) of the same molecule?
Answer: no reversal

Question: What about the “half-maximal effective dose (ED50)” value ([4]; CCI, paw withdrawal threshold, local injection) of the same molecule?
Answer: 4.42 µM

Question: What about the “half-maximal effective dose (ED50)” value ([4]; CCI, per paw) of the same molecule?
Answer: approximately 20 pmol

Question: What about the paw withdrawal threshold ([4]; Stoml3−/− mice with CCI, local treatment of neuropathic paws) of the same molecule?
Answer: no change

Question: What about the mechanical hypersensitivity ([4]; female mice with CCI, similar extent to males) of the same molecule?
Answer: reversed

Question: What about the “tactile-evoked pain or allodynia” value ([4]; wild type mice, CCI 6-21 days after induction, intraplantar ipsilateral) of the same molecule?
Answer: complete reversal

Question: What about the “ASIC3-mediated pH-evoked currents (transient and sustained)” value (ASIC3; CHO cells expressing ASIC3, 20 μm) of the same molecule?
Answer: no effect

Question: What about the “negative modulation of ASIC3 mediated currents by mouse stomatin” value (ASIC3; CHO cells, 20 μM, 3 hours) of the same molecule?
Answer: no detectable effect

Question: What about the “self-association of the human STOML3 protein (BiFC)” value (human STOML3) of the same molecule?
Answer: inhibited

Question: What about the “mechanical hypersensitivity after NGF” value (NGF-injected mice; local intraplantar) of the same molecule?
Answer: not reversed

Question: And the NGF-induced thermal hyperalgesia (NGF-injected mice; local treatment, systemic NGF-injection)?
Answer: not alleviate
